Values quoted from earlier work, collected in patent publication EP3771336A1, “REPELLENT COMPOSITION” (priority 2019, dated 2021).
Converted amounts (≈) assume the structure as drawn.

Legend:
Daphnia magna = settings: aquatic toxicity, daphnids
[1] = at 25°C

Row | vapor pressure [1] | solubility in water | Structure (SMILES) | EC50 (Daphnia magna) [mg/L]
1 | 4.88 x 10^-5 kPa | – | CCCCCCCCCC(=O)O [Decanoic acid] | 16 (≈ 92.9 µM)
2 | – | poor solubility in water | CCCCCCCCCCCC(=O)OC(C)C [IPL, propan-2-yl dodecanoate] | –
3 | – | immiscible with water | CCCCCCCCCCCCCCCC(=O)OC(C)C [IPP, propan-2-yl hexadecanoate] | –
4 | 2.13 x 10^-6 kPa | poorly soluble in water | CCCCCCCCCCCC(=O)O [lauric acid, dodecanoic acid] | –
